Source: patent publication US20250171432A1, “COMPOUNDS AND METHODS OF USE” (Tango Therapeutics, Inc., priority 2022, published 2025)

Experiments:
Type in all cases: cell-based
[1] = tested on: SDMA (PRMT5 activity) in HAP1 MTAP-intact cell line; experiment: SDMA in-cell western assay, HAP1 MTAP-intact; settings: SDMA in-cell western, HAP1 MTAP-intact cells, 24 hours compound incubation
[2] = tested on: SDMA (PRMT5 activity) in HAP1 MTAP-deleted cell line; experiment: SDMA in-cell western assay, HAP1 MTAP-deleted; settings: for IC50 / IC90: SDMA in-cell western, HAP1 MTAP-deleted cells, 24 hours compound incubation; for Hap1 MTAP intact/deleted ratio: ratio of SDMA IC50 in HAP1 MTAP-intact to HAP1 MTAP-deleted cell line
[3] = tested on: HAP1 MTAP-deleted cell line; experiment: Viability assay (CellTiter-Glo), HAP1 MTAP-deleted; settings: HAP1 MTAP-deleted cells, 7 days
Method in brief: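 HAP1 MTAP-deleted and MTAP-intact cells seeded, then dosed next day (n=3, 0.2% DMSO) and grown 7 days. Viability by CellTiter-Glo luminescence, expressed as % of DMSO control per cell line.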

| IC50 ([1]; Homo sapiens, HAP1, 24 h) | IC50 ([2]; Homo sapiens) | IC90 ([2]; Homo sapiens) | IC50 [1] | IC50 [2] | IC90 [2] | SMILES | Hap1 MTAP intact/deleted ratio [2] | IC50 ([3]; Homo sapiens, 168 h) | IC50 [3] |
| --- | --- | --- | --- | --- | --- | --- | --- | --- | --- |
| 5 to 50 nM | < 5 nM | < 75 nM |  |  |  | CCc1cc(NC(=O)C(=O)N2C[C@@H](C)CC[C@@H]2c2ccc3sc(C[C@H]4CCN(C)C[C@@H]4C)nc3c2)cnc1N (racemic) [Compound 18, N-(6-amino-5-ethylpyridin-3-yl)-2-((2R,5S)-2-(2-((1,3-dimethylpiperidin-4-yl)methyl)benzo[d]thiazol-5-yl)-5-methylpiperidin-1-yl)-2-oxoacetamide] | A (“A” indicates an IC50 ratio greater than or equal to 30 fold) | < 100 nM |  |
| 5 to 50 nM | < 5 nM | < 75 nM |  |  |  | CCc1cc(NC(=O)C(=O)N2C[C@@H](C)CC[C@@H]2c2ccc3cn(C4CCCN(C)C4)nc3c2)cnc1N (single isomer, unassigned) [Compound 80] | C (“C” indicates an IC50 ratio of less than 15 fold) | < 100 nM |  |
| 5 to 50 nM | < 5 nM | < 75 nM |  |  |  | CCc1cc(NC(=O)C(=O)N2C[C@@H](C)CC[C@@H]2c2ccc3cn(C4CCN(C)C(C)(C)C4)nc3c2)cnc1N (stereo partly drawn) [Compound 109, N-(6-amino-5-ethyl-3-pyridyl)-2-oxo-2-[(2R,5S)-5-methyl-2-[2-(1,2,2-trimethyl-4-piperidyl)indazol-6-yl]-1-piperidyl]acetamide] | B (“B” indicates an IC50 ratio greater than or equal to 15 fold but lower than 30 fold) | < 100 nM |  |
| > 50 nM | < 5 nM | < 75 nM |  |  |  | CCc1cc(NC(=O)C(=O)N2C[C@@H](C)CC[C@@H]2c2cccc(OCC3CCCN3C)c2)cnc1N (relative stereo) [Compound 69, N-(6-amino-5-ethyl-3-pyridyl)-2-oxo-2-[(2R,5S)-5-methyl-2-[3-[[rel-(2R)-1-methylpyrrolidin-2-yl]methoxy]phenyl]-1-piperidyl]acetamide] | A (“A” indicates an IC50 ratio greater than or equal to 30 fold) | < 100 nM |  |
| > 50 nM | < 5 nM | < 75 nM |  |  |  | C[C@H]1CC[C@H](c2ccc3sc(C4CCN(C)CC4)nc3c2)N(C(=O)C(=O)Nc2cnc(F)c(C(N)=O)c2)C1 [Compound 8, 2-fluoro-5-(2-((2R,5S)-5-methyl-2-(2-(1-methylpiperidin-4-yl)benzo[d]thiazol-5-yl)piperidin-1-yl)-2-oxoacetamido)nicotinamide] | B (“B” indicates an IC50 ratio greater than or equal to 15 fold but lower than 30 fold) | < 100 nM |  |
|  | < 5 nM | < 75 nM | > 50 nM |  |  | CCc1cc(NC(=O)C(=O)N2C[C@@H](C)CC[C@@H]2c2ccc3cn(C4CN(C)CC(C)(C)C4)nc3c2)cnc1N (single isomer, unassigned) [Compound 78] | B (“B” indicates an IC50 ratio greater than or equal to 15 fold but lower than 30 fold) | < 100 nM |  |
| > 50 nM | < 5 nM | < 75 nM |  |  |  | CCc1cc(NC(=O)C(=O)N2C[C@@H](C)CC[C@@H]2c2ccc3cn([C@H]4C[C@H](C)CN(C)C4)nc3c2)cnc1N (relative stereo) [Compound 85, N-(6-amino-5-ethylpyridin-3-yl)-2-((2R,5S)-2-(2-(1,5-dimethylpiperidin-3-yl)-2H-indazol-6-yl)-5-methylpiperidin-1-yl)-2-oxoacetamide] | A (“A” indicates an IC50 ratio greater than or equal to 30 fold) | < 100 nM |  |
| > 50 nM | 5 to 50 nM | < 75 nM |  |  |  | CCc1cc(NC(=O)C(=O)N2C[C@@H](C)CC[C@@H]2c2cccc(OCC3CCCN3C)c2)cnc1N (single isomer, unassigned) [Compound 121] | B (“B” indicates an IC50 ratio greater than or equal to 15 fold but lower than 30 fold) | < 100 nM |  |
| > 50 nM | < 5 nM | < 75 nM |  |  |  | COc1ncc(NC(=O)C(=O)N2C[C@@H](C)CC[C@@H]2c2ccc3sc([C@@H]4CCN(C)CC4(C)C)nc3c2)cc1C(N)=O (single isomer, unassigned) [Compound 3] | B (“B” indicates an IC50 ratio greater than or equal to 15 fold but lower than 30 fold) | < 100 nM |  |
| 5 to 50 nM | < 5 nM | < 75 nM |  |  |  | CCc1cc(NC(=O)C(=O)N2C[C@@H](C)CC[C@@H]2c2ccc3sc(C[C@H](C)N(C)C)nc3c2)cnc1N [Compound 55, N-(6-amino-5-ethylpyridin-3-yl)-2-((2R,5S)-2-(2-((S)-2-(dimethylamino)propyl)benzo[d]thiazol-5-yl)-5-methylpiperidin-1-yl)-2-oxoacetamide] | B (“B” indicates an IC50 ratio greater than or equal to 15 fold but lower than 30 fold) | < 100 nM |  |
| > 50 nM | < 5 nM | < 75 nM |  |  |  | COc1ncc(NC(=O)C(=O)N2C[C@@H](C)CC[C@@H]2c2ccc3sc([C@]45CCC(C4)N(C)C5)nc3c2)cc1C(N)=O [Compound 71, 2-methoxy-5-(2-((2R,5S)-5-methyl-2-(2-((4R)-2-methyl-2-azabicyclo[2.2.1]heptan-4-yl)benzo[d]thiazol-5-yl)piperidin-1-yl)-2-oxoacetamido)nicotinamide] | B (“B” indicates an IC50 ratio greater than or equal to 15 fold but lower than 30 fold) | < 100 nM |  |
| 5 to 50 nM | < 5 nM | < 75 nM |  |  |  | COc1ncc(NC(=O)C(=O)N2C[C@@H](C)CC[C@@H]2c2ccc3sc(C4=CCN(C)CCC4)nc3c2)cc1C(N)=O [Compound 46, 2-methoxy-5-(2-((2R,5S)-5-methyl-2-(2-(1-methyl-2,5,6,7-tetrahydro-1H-azepin-4-yl)benzo[d]thiazol-5-yl)piperidin-1-yl)-2-oxoacetamido)nicotinamide] | B (“B” indicates an IC50 ratio greater than or equal to 15 fold but lower than 30 fold) | < 100 nM |  |
| > 50 nM | < 5 nM | < 75 nM |  |  |  | COc1ncc(NC(=O)C(=O)N2C[C@@H](C)CC[C@@H]2c2ccc3sc(C45CCN(CC4)C5)nc3c2)cc1C(N)=O [Compound 81, 5-(2-((2R,5S)-2-(2-(1-azabicyclo[2.2.1]heptan-4-yl)benzo[d]thiazol-5-yl)-5-methylpiperidin-1-yl)-2-oxoacetamido)-2-methoxynicotinamide] | A (“A” indicates an IC50 ratio greater than or equal to 30 fold) | < 100 nM |  |
| 5 to 50 nM | < 5 nM | < 75 nM |  |  |  | CCc1cc(NC(=O)C(=O)N2C[C@@H](C)CC[C@@H]2c2ccc3cn([C@@H]4CCN(C)C[C@@H]4C)nc3c2)cnc1N [Compound 127] | C (“C” indicates an IC50 ratio of less than 15 fold) | < 100 nM |  |
| > 50 nM | < 5 nM | < 75 nM |  |  |  | COc1ncc(NC(=O)C(=O)N2C[C@@H](C)CC[C@@H]2c2ccc3sc([C@H]4C[C@H](N(C)C)C4)nc3c2)cc1C(N)=O (single isomer, unassigned) [Compound 50] | A (“A” indicates an IC50 ratio greater than or equal to 30 fold) | < 100 nM |  |
| 5 to 50 nM | < 5 nM | < 75 nM |  |  |  | CCc1cc(NC(=O)C(=O)N2C[C@@H](C)CC[C@@H]2c2ccc3cn(C4CCN(C)C(C)(C)C4)nc3c2)cnc1N (single isomer, unassigned) [Compound 48] | C (“C” indicates an IC50 ratio of less than 15 fold) | < 100 nM |  |
|  |  |  | 5 to 50 nM | < 5 nM | < 75 nM | CCc1cc(NC(=O)C(=O)N2C[C@@H](C)CC[C@@H]2c2ccc3cn(C4CN(C)CC(C)(C)C4)nc3c2)cnc1N (single isomer, unassigned) [Compound 114] | B (“B” indicates an IC50 ratio greater than or equal to 15 fold but lower than 30 fold) |  | < 100 nM |
| 5 to 50 nM | < 5 nM | < 75 nM |  |  |  | CCc1cc(NC(=O)C(=O)N2C[C@@H](C)CC[C@@H]2c2ccc3nn([C@H]4CCN(C)C(C)(C)C4)cc3c2)cnc1N [Compound 44] | B (“B” indicates an IC50 ratio greater than or equal to 15 fold but lower than 30 fold) | < 100 nM |  |
| > 50 nM | 5 to 50 nM | 75 to 125 nM |  |  |  | CCc1cc(NC(=O)C(=O)N2CCCC[C@@H]2c2ccc3sc(C4CCN(C)CC4)nc3c2)cnc1N [Compound 73, N-(6-amino-5-ethylpyridin-3-yl)-2-(2-(2-(1-methylpiperidin-4-yl)benzo[d]thiazol-5-yl)piperidin-1-yl)-2-oxoacetamide] | A (“A” indicates an IC50 ratio greater than or equal to 30 fold) | 100 to 1000 nM |  |
| > 50 nM | 5 to 50 nM | 75 to 125 nM |  |  |  | COc1ncc(NC(=O)C(=O)N2C[C@@H](C)CC[C@@H]2c2ccc3sc([C@@H](C)N(C)C)nc3c2)cc1C(N)=O [Compound 25, 2-methoxy-5-[[2-oxo-2-[(2R,5S)-5-methyl-2-[2-[(1R)-1-(dimethylamino)ethyl]-1,3-benzothiazol-5-yl]-1-piperidyl]acetyl]amino]pyridine-3-carboxamide] | A (“A” indicates an IC50 ratio greater than or equal to 30 fold) | < 100 nM |  |
